Experimental data taken from PMC8869984, “Multifunctional Silver(I) Complexes with Metronidazole Drug Reveal Antimicrobial Properties and Antitumor Activity against Human Hepatoma and Colorectal Adenocarcinoma Cells” (Cancers, 2022).
≈ marks a conversion by molar mass, not a printed value. Read-outs that look alike come from different tables or passages of the source.

Key:
HepG2 cells [1] = test: MTT assay (mitochondrial activity), 72 h exposure; format: cell-based, human; conditions: Homo sapiens, mean ± SD, n = 3
Description: (§1) The human hepatoma (HepG2) and colorectal adenocarcinoma (Caco-2) cells were purchased from the American Type Culture Collection: ATCC HB-8065 and ATCC HTB-37, respectively. These cells were cultured in Minimum Essential Medium Eagle (MEME) (ATCC). The murine fibroblasts cell line (Balb/c 3T3 clone A31) (gift from the Department of Swine Diseases of the National Veterinary Research Institute in Pulawy) was cultured in Dulbecco’s Modified Eagle Medium (DMEM) (ATCC). The media were supplemented with 10% BCS (Balb/c 3T3), 10% FBS (HepG2), 20% FBS (Caco-2), 1% L-glutamine, 1% antibiotic solution. The cells were maintained in 75 cm^2 cell culture flasks (NUNC) in a humidified incubator at 37 °C in an atmosphere of 5% CO2. The medium was refreshed every two or three days, and the cells were trypsinized by 0.25% trypsin–0.02% EDTA after reaching 70–80% confluence. Single cell suspensions were prepared and adjusted to a density of 2 × 10^5 cell/mL^−1 (HepG2), 1 × 10^5 cell/mL^−1 (Caco-2) and 5 × 10^4 cell/mL^−1 (Balb/c 3T3). The cell suspension was transferred to 96-well plates (100 µL/well) and incubated for 24 h before the exposure to the studied compounds. Stock solutions of ligands and metal complexes were prepared in sterile water and diluted with culture medium to obtain a concentration range from 0.1 to 10 µM. The final concentration of sterile water was 0.1% in the medium. […] As a negative control, cultured cells were grown in the absence of studied compounds. Each concentration was tested in six replicates in three independent experiments. Cytotoxicity was assessed after 72 h of exposure of the cells to compounds. The medium was not changed during the incubation time.
The metabolic activity of living cells was assessed by the measurement of the activity of dehydrogenases. […] The plate was shaken for 15 min at room temperature and transferred to a microplate reader Synergy HTX multi-mode reader (BioTek® Instruments Inc., Winooski, VT, USA) to measure the absorbance at 570 nm, using a blank as a reference. Cytotoxicity was expressed as a percentage of the negative control. […]

HepG2 cells [2] = test: TPC assay (total protein content), 72 h exposure; format: cell-based, human; conditions: Homo sapiens, mean ± SD, n = 3
Description: as §1
This assay is based upon staining the total cellular protein (proliferation). After the incubation, the medium containing the drug was removed, and 100 µL Coomassie brilliant blue R-250 dye was added to each well. The plate was shaken for 10 min. Then, the stain was removed and the cells were rinsed twice with 100 µL of washing solution (glacial acetic acid/ethanol/water, 5:10:85, v:v:v). After that, 100 µL of the desorbing solution (1 M potassium acetate) was added, and plates were shaken again for 10 min. The absorbance was measured at 595 nm in a microplate reader Synergy HTX multi-mode reader (BioTek® Instruments Inc., Winooski, VT, USA) using a blank as a reference. Cytotoxicity was expressed as a percentage of the negative control.
The study was performed in three independent experiments. The obtained results are presented as mean values ± SD (standard deviation). The assessment of the cytotoxicity data used a one-way analysis of variance (ANOVA) followed by Dunnett’s post hoc test, which was applied to determine significance relative to the negative control.

S. aureus ATCC 25923 = test: micro-dilution broth method (MIC, MBC); format: cell-based, Staphylococcus aureus
[3] = test system: S. epidermidis ATCC 12228; test: micro-dilution broth method (MIC, MBC); format: cell-based, Staphylococcus epidermidis
M. luteus ATCC 10240 = test: micro-dilution broth method (MIC, MBC); format: cell-based, Micrococcus luteus
B. cereus ATCC 10876 = test: micro-dilution broth method (MIC, MBC); format: cell-based, Bacillus cereus
A. israeli ATCC 10049 = test: micro-dilution broth method (MIC, MBC); format: cell-based, Actinomyces israelii
P. acnes ATCC 11827 = test: micro-dilution broth method (MIC, MBC); format: cell-based, Propionibacterium acnes
[4] = test system: C. perfringens ATCC 13124; test: microbe, parasite or virus in culture; format: cell-based, Clostridium perfringens
C. jejunii ATCC 33291 = test: micro-dilution broth method (MIC, MBC); format: cell-based, Campylobacter jejunii
K. pneumoniae ATCC 13883 = test: micro-dilution broth method (MIC, MBC); format: cell-based, Klebsiella pneumoniae
P. aeruginosa ATCC 9027 = test: micro-dilution broth method (MIC, MBC); format: cell-based, Pseudomonas aeruginosa
B. fragilis ATCC 10240 = test: micro-dilution broth method (MIC, MBC); format: cell-based, Bacteroides fragilis
V. parvula ATCC 10790 = test: micro-dilution broth method (MIC, MBC); format: cell-based, Veillonella parvula
[5] = S. aureus ATCC 25923, value in brackets
[6] = S. epidermidis ATCC 12228, value in brackets
[7] = M. luteus ATCC 10240, value in brackets
[8] = B. cereus ATCC 10876, value in brackets
[9] = A. israeli ATCC 10049, value in brackets
[10] = P. acnes ATCC 11827, value in brackets
[11] = C. perfringens ATCC 13124, value in brackets
[12] = Clostridium perfringens, ATCC13124
[13] = C. jejunii ATCC 33291, value in brackets
[14] = K. pneumoniae ATCC 13883, value in brackets
[15] = P. aeruginosa ATCC 9027, value in brackets
[16] = B. fragilis ATCC 10240, value in brackets
[17] = V. parvula ATCC 10790, value in brackets

With `Cc1ncc([N+](=O)[O-])n1CCO` [MTZ, 2-Methyl-5-nitroimidazole-1-ethanol] the IC50 (HepG2 cells [1]) was greater than 10 µM, the IC50 (HepG2 cells [2]) was greater than 10 µM and the MBC (S. aureus ATCC 25923; [5]) was greater than 5.85 µM/mL. The MIC (S. aureus ATCC 25923; [5]) was greater than 5.85 µM/mL, the MBC (S. aureus ATCC 25923; Staphylococcus aureus, ATCC25923, S. aureus ATCC 25923, read-out: MBC) was greater than 1000 µg/mL and the MIC (S. aureus ATCC 25923; Staphylococcus aureus, ATCC25923, S. aureus ATCC 25923, read-out: MIC) was greater than 1000 µg/mL. It also gave an MBC [3, 6] of 2.93 µM/mL, an MIC [3, 6] of 2.93 µM/mL and an MBC ([3]; Staphylococcus epidermidis, ATCC12228, S. epidermidis ATCC 12228, read-out: MBC) of 500 µg/mL (≈ 2920 µM). The MIC ([3]; Staphylococcus epidermidis, ATCC12228, S. epidermidis ATCC 12228, read-out: MIC) was 500 µg/mL (≈ 2920 µM), the MBC (M. luteus ATCC 10240; [7]) was greater than 5.85 µM/mL and the MIC (M. luteus ATCC 10240; [7]) was 5.85 µM/mL. For the same compound, the MBC (M. luteus ATCC 10240; Micrococcus luteus, ATCC10240, M. luteus ATCC 10240, read-out: MBC) was greater than 1000 µg/mL, the MIC (M. luteus ATCC 10240; Micrococcus luteus, ATCC10240, M. luteus ATCC 10240, read-out: MIC) was 1000 µg/mL (≈ 5840 µM) and the MBC (B. cereus ATCC 10876; [8]) was greater than 5.85 µM/mL. It also gave an MIC (B. cereus ATCC 10876; [8]) of 2.93 µM/mL, an MBC (B. cereus ATCC 10876; Bacillus cereus, ATCC10876, B. cereus ATCC 10876, read-out: MBC) greater than 1000 µg/mL and an MIC (B. cereus ATCC 10876; Bacillus cereus, ATCC10876, B. cereus ATCC 10876, read-out: MIC) of 500 µg/mL (≈ 2920 µM). It also gave an MBC (A. israeli ATCC 10049; [9]) greater than 5.85 µM/mL, an MIC (A. israeli ATCC 10049; [9]) greater than 5.85 µM/mL and an MBC (A. israeli ATCC 10049; Actinomyces israelii, ATCC10049, A. israeli ATCC 10049, read-out: MBC) greater than 1000 µg/mL. It also gave an MIC (A. israeli ATCC 10049; Actinomyces israelii, ATCC10049, A. israeli ATCC 10049, read-out: MIC) greater than 1000 µg/mL, an MBC (P. acnes ATCC 11827; Cutibacterium acnes, ATCC11827, P. acnes ATCC 11827, read-out: MBC) greater than 1000 µg/mL and an MIC (P. acnes ATCC 11827; Cutibacterium acnes, ATCC11827, P. acnes ATCC 11827, read-out: MIC) greater than 1000 µg/mL. The MBC (P. acnes ATCC 11827; [10]) was greater than 5.85 µM/mL, the MIC (P. acnes ATCC 11827; [10]) was greater than 5.85 µM/mL and the MBC [4, 11] was 0.01 µM/mL. The MIC [4, 11] was 0.01 µM/mL, the MBC [4, 12] was 1.95 µg/mL (≈ 11.4 µM) and the MIC [4, 12] was 1.95 µg/mL (≈ 11.4 µM). For the same compound, the MBC (C. jejunii ATCC 33291; [13]) was greater than 5.85 µM/mL, the MIC (C. jejunii ATCC 33291; [13]) was 2.93 µM/mL and the MBC (C. jejunii ATCC 33291; Campylobacter, ATCC33291, C. jejunii ATCC 33291, read-out: MBC) was greater than 1000 µg/mL. It also gave an MIC (C. jejunii ATCC 33291; Campylobacter, ATCC33291, C. jejunii ATCC 33291, read-out: MIC) of 500 µg/mL (≈ 2920 µM), an MBC (K. pneumoniae ATCC 13883; [14]) of 5.85 µM/mL and an MIC (K. pneumoniae ATCC 13883; [14]) of 5.85 µM/mL. The MBC (K. pneumoniae ATCC 13883; Klebsiella pneumoniae, ATCC13883, K. pneumoniae ATCC 13883, read-out: MBC) was 1000 µg/mL (≈ 5840 µM), the MIC (K. pneumoniae ATCC 13883; Klebsiella pneumoniae, ATCC13883, K. pneumoniae ATCC 13883, read-out: MIC) was 1000 µg/mL (≈ 5840 µM) and the MBC (P. aeruginosa ATCC 9027; [15]) was greater than 5.85 µM/mL. It also gave an MIC (P. aeruginosa ATCC 9027; [15]) greater than 5.85 µM/mL, an MBC (P. aeruginosa ATCC 9027; Pseudomonas aeruginosa, ATCC9027, P. aeruginosa ATCC 9027, read-out: MBC) greater than 1000 µg/mL and an MIC (P. aeruginosa ATCC 9027; Pseudomonas aeruginosa, ATCC9027, P. aeruginosa ATCC 9027, read-out: MIC) greater than 1000 µg/mL. The MBC (B. fragilis ATCC 10240; [16]) was 0.003 µM/mL, the MIC (B. fragilis ATCC 10240; [16]) was 0.003 µM/mL and the MBC (B. fragilis ATCC 10240; Bacteroides fragilis, ATCC10240, B. fragilis ATCC 10240, read-out: MBC) was 0.49 µg/mL (≈ 2.86 µM). For the same compound, the MIC (B. fragilis ATCC 10240; Bacteroides fragilis, ATCC10240, B. fragilis ATCC 10240, read-out: MIC) was 0.49 µg/mL (≈ 2.86 µM), the MBC (V. parvula ATCC 10790; [17]) was 0.01 µM/mL and the MIC (V. parvula ATCC 10790; [17]) was 0.01 µM/mL. The MBC (V. parvula ATCC 10790; Veillonella parvula, ATCC10790) was 1.95 µg/mL (≈ 11.4 µM) and the MIC (V. parvula ATCC 10790; Veillonella parvula, ATCC10790) was 1.95 µg/mL (≈ 11.4 µM).
